Measured values: patent US20250281480A1, “PHARMACEUTICAL DRY POWDER INHALATION FORMULATION” (Bayer Aktiengesellschaft, priority 2021, published 2025)

Test system: cGMP
Assay: Phase I, healthy male subjects, inhaled once daily for 14 days: cGMP
Format: in vivo, human
Details: for cGMP changes from baseline: 1000 μg inhaled once daily for 14 days, n = 17; for cGMP concntration over time (mean +/− standard deviation): 1000 μg inhaled once daily, 14 days
Description: Healthy white male subjects, aged 18 to 45 years and with a body mass index (BMI) above/equal 18.5 and below/equal 29.9 kg/m2 were treated in a clinical pharmacological phase I study for 14 days with inhaled once daily doses of 1000 μg (nominal dose) or Placebo of dry powder of example 4. […] Drug activity/target engagement in healthy men was controlled in the healthy subjects by analysing blood samples for cGMP.

Compound: O=C(O)c1ccc(CCN(CCc2ccccc2OCc2ccc(-c3ccc(C(F)(F)F)cc3)cc2Cl)[C@H]2CCCc3nc(C(=O)O)ccc32)cc1 [Example 4, (5S)—{[2-(4-Carboxyphenyl)ethyl][2-(2-{[3-chloro-4′-(trifluoromethyl)biphenyl-4-yl]methoxy}phenyl)-ethyl]amino}-5,6,7,8-tetrahydroquinoline-2-carboxylic Acid as Monohydrate I]
- cGMP changes from baseline (0 D 02 H 00 M): 4840 pmol/L
- cGMP changes from baseline (0 D 04 H 00 M): 7290 pmol/L
- cGMP changes from baseline (0 D 06 H 00 M): 9950 pmol/L
- cGMP changes from baseline (0 D 08 H 00 M): 10600 pmol/L
- cGMP changes from baseline (0 D 12 H 00 M): 7530 pmol/L
- cGMP changes from baseline (0 D 15 H 00 M): 6740 pmol/L
- cGMP changes from baseline (1 D 00 H 00 M): 2980 pmol/L
- cGMP changes from baseline (2 D 00 H 00 M): 4550 pmol/L
- cGMP changes from baseline (2 D 03 H 00 M): 13000 pmol/L
- cGMP changes from baseline (2 D 08 H 00 M): 16400 pmol/L
- cGMP changes from baseline (2 D 12 H 00 M): 12600 pmol/L
- cGMP changes from baseline (3 D 00 H 00 M (trough prior inhalation)): 5160 pmol/L
- cGMP changes from baseline (4 D 00 H 00 M (trough prior inhalation)): 6360 pmol/L
- cGMP changes from baseline (5 D 00 H 00 M (trough prior inhalation)): 5920 pmol/L
- cGMP changes from baseline (6 D 00 H 00 M): 5090 pmol/L
- cGMP changes from baseline (6 D 03 H 00 M): 13400 pmol/L
- cGMP changes from baseline (6 D 08 H 00 M): 20100 pmol/L
- cGMP changes from baseline (6 D 12 H 00 M): 13900 pmol/L
- cGMP changes from baseline (7 D 00 H 00 M (trough prior inhalation)): 6180 pmol/L
- cGMP changes from baseline (8 D 00 H 00 M (trough prior inhalation)): 6200 pmol/L
- cGMP changes from baseline (9 D 00 H 00 M (trough prior inhalation)): 6580 pmol/L
- cGMP changes from baseline (10 D 00 H 00 M): 6450 pmol/L
- cGMP changes from baseline (10 D 03 H 00 M): 12700 pmol/L
- cGMP changes from baseline (10 D 08 H 00 M): 17500 pmol/L
- cGMP changes from baseline (10 D 12 H 00 M): 13000 pmol/L
- cGMP changes from baseline (11 D 00 H 00 M (trough prior inhalation)): 6940 pmol/L
- cGMP changes from baseline (12 D 00 H 00 M (trough prior inhalation)): 8060 pmol/L
- cGMP changes from baseline (12 D 22 H 00 M): 6950 pmol/L
- cGMP changes from baseline (13 D 02 H 00 M (after last inhalation)): 9120 pmol/L
- cGMP changes from baseline (13 D 04 H 00 M (after last inhalation)): 12900 pmol/L
- cGMP changes from baseline (13 D 06 H 00 M (after last inhalation)): 17000 pmol/L
- cGMP changes from baseline (13 D 08 H 00 M (after last inhalation)): 17700 pmol/L
- cGMP changes from baseline (13 D 12 H 00 M (after last inhalation)): 12900 pmol/L
- cGMP changes from baseline (13 D 15 H 00 M (after last inhalation)): 12100 pmol/L
- cGMP changes from baseline (14 D 00 H 00 M (after last inhalation)): 5410 pmol/L
- cGMP changes from baseline (15 D 00 H 00 M (after last inhalation)): 2520 pmol/L
- cGMP changes from baseline (15 D 12 H 00 M (after last inhalation)): 3040 pmol/L
- cGMP changes from baseline (16 D 00 H 00 M (after last inhalation)): 2000 pmol/L
- cGMP changes from baseline (16 D 12 H 00 M (after last inhalation)): 2410 pmol/L
- cGMP changes from baseline (17 D 00 H 00 M (after last inhalation)): 400 pmol/L
- cGMP changes from baseline (20 D 00 H 00 M (after last inhalation)): 1220 pmol/L
- cGMP changes from baseline (FOLLOW-UP): 1520 pmol/L
- cGMP changes from baseline (−0 D 09 H 00 M (pretreatment day)): 224 pmol/L
- cGMP changes from baseline (−0 D 12 H 00 M (pretreatment day)): 306 pmol/L
- cGMP changes from baseline (−0 D 16 H 00 M (pretreatment day)): 676 pmol/L
- cGMP changes from baseline (−0 D 18 H 00 M (pretreatment day)): −252.9 +/− 1345.9
- cGMP changes from baseline (−0 D 20 H 00 M (pretreatment day)): −952.9 +/− 1984.7
- cGMP changes from baseline (−0 D 22 H 00 M (pretreatment day)): −100.0 +/− 1403.1
- cGMP concntration over time (mean +/− standard deviation) (0 D 02 H 00 M): 9170 pmol/L
- cGMP concntration over time (mean +/− standard deviation) (0 D 04 H 00 M): 11600 pmol/L
- cGMP concntration over time (mean +/− standard deviation) (0 D 06 H 00 M): 14300 pmol/L
- cGMP concntration over time (mean +/− standard deviation) (0 D 08 H 00 M): 14900 pmol/L
- cGMP concntration over time (mean +/− standard deviation) (0 D 12 H 00 M): 11800 pmol/L
- cGMP concntration over time (mean +/− standard deviation) (0 D 15 H 00 M): 11100 pmol/L
- cGMP concntration over time (mean +/− standard deviation) (1 D 00 H 00 M): 7310 pmol/L
- cGMP concntration over time (mean +/− standard deviation) (2 D 00 H 00 M): 8880 pmol/L
- cGMP concntration over time (mean +/− standard deviation) (2 D 03 H 00 M): 17300 pmol/L
- cGMP concntration over time (mean +/− standard deviation) (2 D 08 H 00 M): 20800 pmol/L
- cGMP concntration over time (mean +/− standard deviation) (2 D 12 H 00 M): 16900 pmol/L
- cGMP concntration over time (mean +/− standard deviation) (3 D 00 H 00 M): 9490 pmol/L
- cGMP concntration over time (mean +/− standard deviation) (4 D 00 H 00 M): 10700 pmol/L
- cGMP concntration over time (mean +/− standard deviation) (5 D 00 H 00 M): 10300 pmol/L
- cGMP concntration over time (mean +/− standard deviation) (6 D 00 H 00 M): 9420 pmol/L
- cGMP concntration over time (mean +/− standard deviation) (6 D 03 H 00 M): 17700 pmol/L
- cGMP concntration over time (mean +/− standard deviation) (6 D 08 H 00 M): 24500 pmol/L
- cGMP concntration over time (mean +/− standard deviation) (6 D 12 H 00 M): 18200 pmol/L
- cGMP concntration over time (mean +/− standard deviation) (7 D 00 H 00 M): 10500 pmol/L
- cGMP concntration over time (mean +/− standard deviation) (8 D 00 H 00 M): 10500 pmol/L
- cGMP concntration over time (mean +/− standard deviation) (9 D 00 H 00 M): 10900 pmol/L
- cGMP concntration over time (mean +/− standard deviation) (10 D 00 H 00 M): 10800 pmol/L
- cGMP concntration over time (mean +/− standard deviation) (10 D 03 H 00 M): 17100 pmol/L
- cGMP concntration over time (mean +/− standard deviation) (10 D 08 H 00 M): 21900 pmol/L
- cGMP concntration over time (mean +/− standard deviation) (10 D 12 H 00 M): 17300 pmol/L
- cGMP concntration over time (mean +/− standard deviation) (11 D 00 H 00 M): 11300 pmol/L
- cGMP concntration over time (mean +/− standard deviation) (12 D 00 H 00 M): 12400 pmol/L
- cGMP concntration over time (mean +/− standard deviation) (12 D 22 H 00 M): 11300 pmol/L
- cGMP concntration over time (mean +/− standard deviation) (13 D 02 H 00 M): 13400 pmol/L
- cGMP concntration over time (mean +/− standard deviation) (13 D 04 H 00 M): 17300 pmol/L
- cGMP concntration over time (mean +/− standard deviation) (13 D 06 H 00 M): 21400 pmol/L
- cGMP concntration over time (mean +/− standard deviation) (13 D 08 H 00 M): 22000 pmol/L
- cGMP concntration over time (mean +/− standard deviation) (13 D 12 H 00 M): 17200 pmol/L
- cGMP concntration over time (mean +/− standard deviation) (13 D 15 H 00 M): 16400 pmol/L
- cGMP concntration over time (mean +/− standard deviation) (14 D 00 H 00 M): 9740 pmol/L
- cGMP concntration over time (mean +/− standard deviation) (15 D 00 H 00 M): 6850 pmol/L
- cGMP concntration over time (mean +/− standard deviation) (15 D 12 H 00 M): 7370 pmol/L
- cGMP concntration over time (mean +/− standard deviation) (16 D 00 H 00 M): 6330 pmol/L
- cGMP concntration over time (mean +/− standard deviation) (16 D 12 H 00 M): 6740 pmol/L
- cGMP concntration over time (mean +/− standard deviation) (17 D 00 H 00 M): 4730 pmol/L
- cGMP concntration over time (mean +/− standard deviation) (20 D 00 H 00 M): 5520 pmol/L
- cGMP concntration over time (mean +/− standard deviation) (FOLLOW-UP): 5850 pmol/L
- cGMP concntration over time (mean +/− standard deviation) (−0 D 02 H 00 M): 4330 pmol/L
- cGMP concntration over time (mean +/− standard deviation) (−0 D 09 H 00 M): 5490 pmol/L
- cGMP concntration over time (mean +/− standard deviation) (−0 D 12 H 00 M): 5570 pmol/L
- cGMP concntration over time (mean +/− standard deviation) (−0 D 16 H 00 M): 5940 pmol/L
- cGMP concntration over time (mean +/− standard deviation) (−0 D 18 H 00 M): 5010 pmol/L
- cGMP concntration over time (mean +/− standard deviation) (−0 D 20 H 00 M): 4310 pmol/L
- cGMP concntration over time (mean +/− standard deviation) (−0 D 22 H 00 M): 5160 pmol/L
- cGMP concntration over time (mean +/− standard deviation) (−1 D 02 H 00 M): 5260 pmol/L
- steady state of cGMP concentration reached after (1000 μg once daily inhalation): ≤ 11 days
